Values quoted from earlier work, collected in US20090233840A1, “Modified Dynorphin Expression in Animals and Identification of Compounds for Treatment of Obesity and Diabetes” (priority 2004, published 2009).

Assays:
[1] = not affected by naloxone or norBNI
[2] = tested on: cultured cortical cells from Sprague Dawley rats; settings: comparable to that induced by NMDA; resistant to naloxone
[3] = administered ICV
[4] = intracerebroventricularly

In the case of “Dyn A(1-13) (YGGFLRRIRPKLK; Dynorphin A(1-13); UniProt P01213 207-219, looked up, fragment)”, the “potency in writhing assay” value [1] is listed as “very potent”.
In the case of dynorphin A (2-17), the intracellular calcium concentration [2] is listed as “increase in intracellular calcium concentration”.
For “dynorphin A (YGGFLRRIRPKLKWDNQ; Dynorphin A(1-17); UniProt P01213 207-223, looked up) [[Leu]-enkephalin-containing opioid peptide encoded by the preprodynorphin gene]”, the analgesic efficacy [3] is listed as “ineffective” and the analgesic effect [4] is listed as “moderate analgesic effect”.
